From the supplement of paper PMC8617591

What was measured:
[1] = system: Mycobacterium tuberculosis Erdman (autoluminescent); assay: AUC25, normalised area under dose response up to IC25 (three-drug combination) (fraction (0-1)); higher = more potent at low dose
Method: (§1)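 DiaMOND equipotent three-drug combination dose responses (10 doses, 1.5- or 2-fold spacing, centred on IC90) against autoluminescent M. tuberculosis Erdman in 8 in vitro models. Read-out is OD600, or luminescence for the intracellular and dormancy models, normalised to untreated wells. Hill-fit Einf, AUC25 and GRinf are potency metrics; FIC50 and FIC90 are total Loewe fractional inhibitory concentrations as log2 (negative = synergy).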

[2] = system: Mycobacterium tuberculosis Erdman (autoluminescent); assay: GRinf, maximum normalised growth rate inhibition (three-drug combination) (unitless (-1 to 1)); higher = less effect (negative = killing)
Method: as §1

[3] = system: Mycobacterium tuberculosis Erdman (autoluminescent); assay: total FIC90 (Loewe) at 90% inhibition, three-drug combination (log2); higher = more antagonistic
Method: as §1

[4] = system: Mycobacterium tuberculosis Erdman (autoluminescent); assay: total FIC50 (Loewe) at 50% inhibition, three-drug combination (log2); higher = more antagonistic
Method: as §1

[5] = system: Mycobacterium tuberculosis Erdman (autoluminescent); assay: Einf, fitted maximum growth inhibition of three-drug combination (fraction); higher = stronger maximal inhibition
Method: as §1

COc1nc2ccc(Br)cc2cc1[C@@H](c1ccccc1)[C@@](O)(CCN(C)C)c1cccc2ccccc12 [bedaquiline] + NC(=O)c1cnccn1 [pyrazinamide] + CO[C@H]1/C=C/O[C@@]2(C)Oc3c(C)c(O)c4c(O)c(c(/C=N/N5CCN(C)CC5)c(O)c4c3C2=O)NC(=O)/C(C)=C\C=C\[C@H](C)[C@H](O)[C@@H](C)[C@@H](O)[C@@H](C)[C@H](OC(C)=O)[C@@H]1C [rifampicin]
Details | AUC25, [1] | Einf, [5] | GRinf, [2] | total FIC50, [4] | total FIC90, [3]
in vitro model: acidic pH 5.7, time point: constant (~7 days, model-specific) | 0.0834 | 0.901 | -0.315 | 0.337 | –
in vitro model: acidic pH 5.7, time point: terminal (~4-5 doublings, model-specific) | 0.0711 | 0.981 | -0.241 | 0.285 | -0.207
in vitro model: intracellular J774, time point: constant = terminal | – | 0.999 | -0.44 | – | 0.24

Details | AUC25, [1] | Einf, [5] | GRinf, [2] | total FIC50, [4] | total FIC90, [3]
in vitro model: butyrate, time point: constant (~7 days, model-specific) | 0.118 | 0.967 | -0.45 | 0.454 | 0.281
in vitro model: butyrate, time point: terminal (~4-5 doublings, model-specific) | 0.11 | 0.993 | -0.729 | 0.529 | 0.948
in vitro model: cholesterol 0.05 mM, time point: constant (~7 days, model-specific) | 0.102 | 0.776 | -0.214 | – | –
in vitro model: cholesterol 0.05 mM, time point: terminal (~4-5 doublings, model-specific) | 0.0832 | 0.929 | -0.267 | 1.1 | –
in vitro model: cholesterol-high 0.2 mM, time point: constant (~7 days, model-specific) | 0.0476 | 0.933 | -0.352 | 0.834 | –
in vitro model: cholesterol-high 0.2 mM, time point: terminal (~4-5 doublings, model-specific) | 0.0598 | 1 | -0.624 | 1.34 | 0.74
in vitro model: dormancy (butyrate + nitrate, low O2), time point: constant (~7 days, model-specific) | 0.0673 | 0.914 | 0.179 | -0.454 | -0.722
in vitro model: dormancy (butyrate + nitrate, low O2), time point: terminal (~4-5 doublings, model-specific) | 0.0465 | 0.984 | -0.139 | -0.149 | -0.476
in vitro model: standard 7H9 glycerol, time point: constant = terminal | 0.0766 | 0.913 | 0.0332 | 0.401 | –
in vitro model: valerate, time point: constant (~7 days, model-specific) | 0.0558 | 0.839 | 0.0298 | 0.905 | –
in vitro model: valerate, time point: terminal (~4-5 doublings, model-specific) | 0.032 | 0.935 | 0.00447 | 0.857 | 0.584

COc1nc2ccc(Br)cc2cc1[C@@H](c1ccccc1)[C@@](O)(CCN(C)C)c1cccc2ccccc12 [bedaquiline] + NNC(=O)c1ccncc1 [isoniazid] + COc1c(N2C[C@@H]3CCCN[C@@H]3C2)c(F)cc2c(=O)c(C(=O)O)cn(C3CC3)c12 [moxifloxacin]
Details | AUC25, [1] | Einf, [5] | GRinf, [2] | total FIC50, [4] | total FIC90, [3]
in vitro model: acidic pH 5.7, time point: constant (~7 days, model-specific) | 0.098 | 0.7 | -0.325 | 0.527 | –
in vitro model: acidic pH 5.7, time point: terminal (~4-5 doublings, model-specific) | 0.0943 | 0.958 | -0.313 | 0.604 | 0.776
in vitro model: intracellular J774, time point: constant = terminal | – | 0.972 | -0.784 | – | 1.2

Details | AUC25, [1] | Einf, [5] | GRinf, [2] | total FIC50, [4] | total FIC90, [3]
in vitro model: butyrate, time point: constant (~7 days, model-specific) | 0.0762 | 0.94 | -0.0717 | 0.776 | 0.906
in vitro model: butyrate, time point: terminal (~4-5 doublings, model-specific) | 0.0478 | 0.973 | -0.0805 | 0.672 | 0.575
in vitro model: cholesterol 0.05 mM, time point: constant (~7 days, model-specific) | 0.0995 | 0.742 | -0.202 | 0.612 | –
in vitro model: cholesterol 0.05 mM, time point: terminal (~4-5 doublings, model-specific) | 0.0886 | 0.923 | -0.178 | 0.549 | -0.479
in vitro model: cholesterol-high 0.2 mM, time point: constant (~7 days, model-specific) | 0.0861 | 0.952 | -0.436 | 0.394 | 0.57
in vitro model: cholesterol-high 0.2 mM, time point: terminal (~4-5 doublings, model-specific) | 0.0461 | 0.991 | -0.601 | 0.581 | 0.234
in vitro model: dormancy (butyrate + nitrate, low O2), time point: constant (~7 days, model-specific) | 0.0686 | 0.938 | 0.161 | 0.895 | 0.336
in vitro model: dormancy (butyrate + nitrate, low O2), time point: terminal (~4-5 doublings, model-specific) | 0.0705 | 0.997 | -0.252 | 0.646 | 0.782
in vitro model: standard 7H9 glycerol, time point: constant = terminal | 0.0816 | 0.987 | -0.154 | 0.375 | 0.614
in vitro model: valerate, time point: constant (~7 days, model-specific) | 0.1 | 0.925 | -0.134 | 0.901 | –
in vitro model: valerate, time point: terminal (~4-5 doublings, model-specific) | 0.067 | 0.949 | -0.0225 | 0.672 | 1.33

CC(=O)NC[C@H]1CN(c2ccc(N3CCOCC3)c(F)c2)C(=O)O1 [linezolid] + O=[N+]([O-])c1cn2c(n1)OC[C@@H](OCc1ccc(OC(F)(F)F)cc1)C2 [pretomanid] + CO[C@H]1/C=C/O[C@@]2(C)Oc3c(C)c(O)c4c(O)c(c(/C=N/N5CCN(C)CC5)c(O)c4c3C2=O)NC(=O)/C(C)=C\C=C\[C@H](C)[C@H](O)[C@@H](C)[C@@H](O)[C@@H](C)[C@H](OC(C)=O)[C@@H]1C [rifampicin]
Details | AUC25, [1] | Einf, [5] | GRinf, [2] | total FIC50, [4] | total FIC90, [3]
in vitro model: acidic pH 5.7, time point: constant (~7 days, model-specific) | 0.0793 | 0.893 | -0.221 | 0.745 | –
in vitro model: acidic pH 5.7, time point: terminal (~4-5 doublings, model-specific) | 0.0641 | 0.987 | -0.265 | 0.832 | 0.521
in vitro model: intracellular J774, time point: constant = terminal | – | 0.98 | -0.287 | – | 0.288

Details | AUC25, [1] | Einf, [5] | GRinf, [2] | total FIC50, [4] | total FIC90, [3]
in vitro model: butyrate, time point: constant (~7 days, model-specific) | 0.0869 | 0.896 | 0.0695 | 0.127 | 0.148
in vitro model: butyrate, time point: terminal (~4-5 doublings, model-specific) | 0.0669 | 0.948 | 0.0615 | 0.00331 | -0.305
in vitro model: cholesterol 0.05 mM, time point: constant (~7 days, model-specific) | 0.128 | 0.66 | -0.0769 | 0.0451 | –
in vitro model: cholesterol 0.05 mM, time point: terminal (~4-5 doublings, model-specific) | 0.127 | 0.895 | -0.203 | 0.545 | -0.354
in vitro model: cholesterol-high 0.2 mM, time point: constant (~7 days, model-specific) | 0.0921 | 0.885 | -0.118 | 0.326 | 1.11
in vitro model: cholesterol-high 0.2 mM, time point: terminal (~4-5 doublings, model-specific) | 0.0881 | 0.972 | -0.505 | 0.645 | 0.499
in vitro model: dormancy (butyrate + nitrate, low O2), time point: constant (~7 days, model-specific) | 0.0572 | 0.911 | 0.214 | 0.855 | 0.28
in vitro model: dormancy (butyrate + nitrate, low O2), time point: terminal (~4-5 doublings, model-specific) | 0.0401 | 0.97 | -0.0505 | 0.25 | 0.29
in vitro model: standard 7H9 glycerol, time point: constant = terminal | 0.0674 | 0.915 | 0.0995 | 0.0346 | -0.714
in vitro model: valerate, time point: constant (~7 days, model-specific) | 0.1 | 0.89 | -0.015 | 0.394 | –
in vitro model: valerate, time point: terminal (~4-5 doublings, model-specific) | 0.0505 | 0.925 | 0.0379 | 0.622 | 0.278
